This is an account of results in patent US11945794B2, “Nuclear transport modulators and uses thereof” (Karyopharm Therapeutics Inc., priority 2013, dated 2024).

SMILES strings stand for the structures.

The target in assay [1] is T1, XPO1 (Homo sapiens, UniProt O14980).
T1 construct: endogenous in cells; host or cells: HT1080 (fibrosarcoma) cells
Description: XPO1 degradation assay in HT1080 cells (Western blot). In kind it is cell-based. Particulars: five concentrations, 24 hours. An excerpt:
Western blot analysis of cellular lysates of the treated cells was used to determine the protein expression of XPO1. Beta-actin was used as a loading control.
(Immunoblotting shows a protein as a band on a membrane.)

Assay [2] concerns MDA-MB-468 xenograft. Description: MDA-MB-468 xenograft model. In kind it is in vivo, mouse. Particulars: 10 mg/kg PO once daily, CB-17 SCID mice, compared to vehicle. As to the method:
MDA-MB-468 (ATCC #HTB-102) breast adenocarcinoma cells were obtained from ATCC. These cells were grown in high glucose DMEM medium supplemented with 10% fetal bovine serum, 1% penicillin and streptomycin, and 2 mM L-Glutamine. Cells were sub-cultured by dilution at a ratio of 1:4. MDA-MB-468 cells were harvested by trypsinization and counted using a hemocytometer. Cells were resuspended in PBS at a concentration of 4×10^8 cells per mL. Cells were placed on ice and mixed with an equal volume of Matrigel (BD Biosciences CB-40234). Twenty-two (22) CB-17 SCID mice were inoculated sub-cutaneously in the left flank with 4×10^7 MDA-MB-468 cells. Treatment was initiated when the tumors reached a mean volume of ˜100 mm^3. […] Animals' weights and condition were recorded daily, and tumors were measured on Mondays, Wednesdays, and Fridays.

For assay [3], the system named is COLO 205 xenograft. Description: COLO 205 colorectal carcinoma xenograft model. It counts as in vivo, mouse. How it is done:
COLO 205 (CCL-222) colorectal cancer cells were obtained from ATCC. These cells were grown in RPMI-1640 medium supplemented with 10% fetal bovine serum, 1% penicillin and streptomycin. Cells were sub-cultured by transferring floating cells to a new flask and trypsinizing adherent cells before sub-culturing at a ratio of 1:4. COLO 205 cells were harvested by centrifugation and counted using a hemocytometer. Cells were resuspended in PBS at a concentration of 5×10^7 cells per mL. Cells were placed on ice, and then mixed with an equal volume of Matrigel™ (BD Biosciences CB-40234). This mixture was kept on ice and injected into the left flank of mice in a volume of 0.2 mL, equivalent to 5×10^6 cells per mouse. Thirty-two (32) SCID mice were inoculated subcutaneously in the left flank with 5×10^6 COLO 205 cells. Treatment was initiated when the tumors reached a mean volume of 103.7 mm^3 (standard deviation±30 mm^3, range 17-183 mm^3). Mice were allocated to four (4) groups of eight (8) mice such that mean tumor volume in each group was within the range of 95 to 104 mm^3. […] With the exception of 5-FU (which was given IP on days 1 and 3), all compounds were given by oral gavage. […] Animal weights and conditions were recorded daily, and tumors were measured on Mondays, Wednesdays and Fridays.

T1 sequence (O14980 whole entry): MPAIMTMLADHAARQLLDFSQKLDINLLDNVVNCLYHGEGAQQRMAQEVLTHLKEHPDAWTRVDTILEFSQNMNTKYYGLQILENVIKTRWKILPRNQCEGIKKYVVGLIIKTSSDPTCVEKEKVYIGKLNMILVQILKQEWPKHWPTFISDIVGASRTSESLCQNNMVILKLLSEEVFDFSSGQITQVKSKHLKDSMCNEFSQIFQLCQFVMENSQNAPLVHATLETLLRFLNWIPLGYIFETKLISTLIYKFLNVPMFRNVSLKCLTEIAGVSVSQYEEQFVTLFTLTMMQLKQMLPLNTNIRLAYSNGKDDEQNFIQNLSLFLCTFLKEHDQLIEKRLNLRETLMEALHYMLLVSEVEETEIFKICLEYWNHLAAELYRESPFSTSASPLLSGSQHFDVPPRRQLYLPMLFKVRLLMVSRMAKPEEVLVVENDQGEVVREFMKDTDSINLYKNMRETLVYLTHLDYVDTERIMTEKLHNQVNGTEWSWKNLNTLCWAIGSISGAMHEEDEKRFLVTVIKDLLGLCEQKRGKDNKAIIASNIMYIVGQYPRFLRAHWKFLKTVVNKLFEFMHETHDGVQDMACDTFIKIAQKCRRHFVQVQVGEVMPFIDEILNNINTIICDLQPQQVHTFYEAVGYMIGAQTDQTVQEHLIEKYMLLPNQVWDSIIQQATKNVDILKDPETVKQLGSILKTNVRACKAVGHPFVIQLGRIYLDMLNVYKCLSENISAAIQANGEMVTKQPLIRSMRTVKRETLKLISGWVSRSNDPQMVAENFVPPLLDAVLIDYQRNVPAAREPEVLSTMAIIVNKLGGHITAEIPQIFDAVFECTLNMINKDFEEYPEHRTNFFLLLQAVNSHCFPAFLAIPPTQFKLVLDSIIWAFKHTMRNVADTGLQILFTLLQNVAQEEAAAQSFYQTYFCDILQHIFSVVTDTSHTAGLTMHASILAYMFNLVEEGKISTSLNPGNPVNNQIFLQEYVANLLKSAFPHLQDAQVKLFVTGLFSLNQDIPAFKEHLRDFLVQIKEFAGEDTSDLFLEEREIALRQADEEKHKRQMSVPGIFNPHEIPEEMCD

On to `NC(=O)/C(=C/n1cnc(-c2cc(C(F)(F)F)cc(C(F)(F)F)c2)n1)c1cncnc1` [Compound 124, (E)-3-(3-(3,5-bis(trifluoromethyl)phenyl)-1H-1,2,4-triazol-1-yl)-2-(pyrimidin-5-yl)acrylamide], for which, in assay [1], the “protein expression of XPO1” value was “degraded XPO1 in a dose-dependent manner”. In addition, the mean tumor volume result in assay [2] is reported as “mean tumor volume was reduced”; in assay [3] (5 or 15 mg/kg PO daily, SCID mice, compared to vehicle), “mean tumor volume was reduced”. The “mean tumor volume compared with standard of care” value in assay [3] (particularly 15 mg/kg PO daily, versus 5-FU) is “compared favorably”.
